Converted amounts (≈) assume the structure as drawn. Read-outs that look alike come from different tables or passages of the source.
How the values were obtained:
Format in all cases: physicochemical
[1] = Liquid diffusion crystallization, solid form by HT-XRPD
Procedure: A solution of cannabidiol of about 75 mg/mL was prepared and a layer of anti-solvent was carefully added to the vial. These experiments were performed with water as anti-solvent because of the larger difference in density between solvent and anti-solvent.

[2] = Cooling crystallization, XRPD before and after AAC
Procedure: Cooling crystallizations were performed by preparing clear solutions of CBD with a maximum concentration of approximately 60 mg/mL. The solutions were slowly cooled to 0° C. and kept at this temperature for 48 hours. Precipitated solids were collected, dried under ambient conditions, and analyzed by XRPD. If no solids had precipitated, the mother liquors were allowed to slowly evaporate and the remaining solids were analyzed by XRPD. All solids were exposed to accelerated aging conditions for 48 hours and analyzed again by XRPD. Cannabidiol precipitated upon cooling from pentane and heptane. […] When no XRPD record was generated, the field is defined as “Not Applicable” (N/A).

[3] = Cannabidiol solubility in neat solvents and mixtures, isooctane solubility curve; conditions: for solubility: read-out: Solubility at RT
From the text: Isooctane was selected as the final crystallization solvent due the low solubility and similar properties to heptane, i.e., low viscosity and boiling point relative to other higher hydrocarbons (Table 33). Based on the solubility and desire to maximize yield, an isooctane volume of 4.0 L/kg was selected as an appropriate crystallization concentration. Prior to crystallization, it was desired to fully dissolve the CBD in isooctane and filter the process stream. […] The isolation temperature of −20° C. was chosen to maximize the yield of the CBD from the final crystallization.

[4] = Crystallization by single solvent drop grinding, HT-XRPD before and after AAC
Procedure: For the grinding experiments, 40 mg cannabidiol was placed in a stainless steel container with 10 μL solvent and two steel beads. The vials were shaken for 1 hour at 30 Hz, after which the solids were collected for XRPD analysis. All of the samples were classified as Form A based on HT-XRPD analysis.

[5] = solvent 1,4-Dioxane, anti-solvent Water
[6] = solvent Diethanolamine, anti-solvent Water
[7] = solvent Diethylene glycol, anti-solvent Water
[8] = solvent Dimethyl sulfoxide, anti-solvent Water

## C=C(C)[C@@H]1CCC(C)=C[C@H]1c1c(O)cc(CCCCC)cc1O [CBD, (1′R,2′R)-5′-methyl-4-pentyl-2′-(prop-1-en-2-yl)-1′,2′,3′,4′-tetrahydro-[1,1′-biphenyl]-2,6-diol]
[1]; AAC for 2 days
  Effect of accelerated aging conditions: no effect on the solid form
[1]; [5]
  Solid form by HT-XRPD Ambient After AAC: oily
  Solid form by HT-XRPD Ambient Before AAC: oily
  Solid form by HT-XRPD Vacuum: Oily
  Solids after?: No
[1]; [6]
  Solid form by HT-XRPD Vacuum: Oily
  Solids after?: Yes
[1]; [7]
  Solid form by HT-XRPD Vacuum: Oily
  Solids after?: Yes
[1]; [8]
  Solid form by HT-XRPD Vacuum: Oily
  Solids after?: Yes
[1]; water as anti-solvent, except 1,4-dioxane, diethylene glycol, DMSO and diethanolamine
  XRPD of crystalline precipitates: indicative of Form A
[2]; AAC for 48 hours
  Effect of accelerated aging conditions: no effect on the crystallinity
[2]; from pentane and heptane, cooled to 0° C., 48 hours
  XRPD of solids precipitated upon cooling: identical to starting material Form A
[2]; solvent 1,2-Dimethoxyethane
  Dissolved at initial T?: Yes
  Solids after T profile: No
[2]; solvent 1,4-Dioxane
  Dissolved at initial T?: Yes
  Solids after T profile: No
[2]; solvent 2,2,4-Trimethylpentane
  Dissolved at initial T?: No
  Solids after T profile: No
[2]; solvent Acetone
  Dissolved at initial T?: Yes
  Form by HT-XRPD Dry solids: Oily
  Solids after T profile: No
[2]; solvent Acetonitrile
  Dissolved at initial T?: Yes
  Form by HT-XRPD Dry solids: Oily
  Solids after T profile: No
[2]; solvent Chloroform
  Dissolved at initial T?: Yes
  Form by HT-XRPD Dry solids: Oily
  Solids after T profile: No
[2]; solvent Cyclohexane
  Dissolved at initial T?: Yes
  Solids after T profile: No
[2]; solvent Diethylene glycol
  Dissolved at initial T?: Yes
  Form by HT-XRPD Dry solids: Oily
  Solids after T profile: No
[2]; solvent Ethanol
  Dissolved at initial T?: Yes
  Solids after T profile: No
[2]; solvent Ethyl acetate
  Dissolved at initial T?: Yes
  Form by HT-XRPD Dry solids: Oily
  Solids after T profile: No
[2]; solvent Heptane
  Dissolved at initial T?: Yes
  Form by HT-XRPD Dry solids: Oily
  Solids after T profile: No
[2]; solvent Hexane
  Dissolved at initial T?: No
  Solids after T profile: Yes
[2]; solvent Pentane
  Dissolved at initial T?: No
  Solids after T profile: Yes
[2]; solvent Tetrahydrofuran
  Dissolved at initial T?: Yes
  Form by HT-XRPD Dry solids: Oily
  Solids after T profile: No
[2]; solvent Water
  Dissolved at initial T?: No
  Form by HT-XRPD Dry solids: Low yield
  Solids after T profile: No
[3]; 1,2-dimethoxyethane, organic solvent or mixture
  solubility: > 100 mg/mL
[3]; 1,4-dioxane, organic solvent or mixture
  solubility: > 100 mg/mL
[3]; 1-propanol, organic solvent or mixture
  solubility: > 100 mg/mL
[3]; 2-butanone, organic solvent or mixture
  solubility: > 100 mg/mL
[3]; 10/90 water/ethanol, organic solvent or mixture
  solubility: > 100 mg/mL
[3]; 30/70 water/IPA, organic solvent or mixture
  solubility: > 20 mg/mL
[3]; 30/70 water/ethanol, organic solvent or mixture
  solubility: 20 to 70 mg/mL (≈ 63.6 to 223 mM)
[3]; 40/60 Water Methanol
  Solubility at RT: oil
[3]; 45/65 Water Methanol
  Solubility at RT: 3.4 mg/mL (≈ 10.8 mM)
[3]; 50/50 Water/Methanol
  Solubility at RT: 0.3 mg/mL (≈ 0.954 mM)
[3]; 50/50 water/IPA, aqueous with cosolvent or surfactant or cyclodextrin
  solubility: 10 to 20 mg/mL (≈ 31.8 to 63.6 mM)
[3]; 50/50 water/ethanol, aqueous with cosolvent or surfactant or cyclodextrin
  solubility: < 5 mg/mL
[3]; ACN, organic solvent or mixture
  solubility: > 100 mg/mL
[3]; CIP 100, aqueous with cosolvent or surfactant or cyclodextrin
  solubility: < 1 mg/mL
[3]; CIP 200, aqueous with cosolvent or surfactant or cyclodextrin
  solubility: < 1 mg/mL
[3]; DCM, organic solvent or mixture
  solubility: > 100 mg/mL
[3]; EtOAc, organic solvent or mixture
  solubility: > 100 mg/mL
[3]; EtOH, organic solvent or mixture
  solubility: > 100 mg/mL
[3]; IPA, organic solvent or mixture
  solubility: > 100 mg/mL
[3]; IPOAc, organic solvent or mixture
  solubility: > 100 mg/mL
[3]; MTBE, organic solvent or mixture
  solubility: > 100 mg/mL
[3]; MeOH, organic solvent or mixture
  solubility: > 100 mg/mL
[3]; MeTHF saturated with water, organic solvent or mixture
  solubility: > 100 mg/mL
[3]; MeTHF, organic solvent or mixture
  solubility: > 100 mg/mL
[3]; NMPO, organic solvent or mixture
  solubility: > 100 mg/mL
[3]; THF, organic solvent or mixture
  solubility: > 100 mg/mL
[3]; acetone, organic solvent or mixture
  solubility: > 100 mg/mL
[3]; anisole, organic solvent or mixture
  solubility: > 100 mg/mL
[3]; chloroform, organic solvent or mixture
  solubility: > 100 mg/mL
[3]; cumene, organic solvent or mixture
  solubility: > 100 mg/mL
[3]; cyclohexane, organic solvent or mixture
  solubility: > 100 mg/mL
[3]; diethyl ether, organic solvent or mixture
  solubility: > 100 mg/mL
[3]; ethyl formate, organic solvent or mixture
  solubility: > 100 mg/mL
[3]; heptane, organic solvent or mixture
  solubility: 64.6 mg/mL (≈ 205 mM)
[3]; isobutanol, organic solvent or mixture
  solubility: > 100 mg/mL
[3]; isooctane, organic solvent or mixture
  solubility: 43.9 mg/mL (≈ 140 mM)
[3]; methylcyclohexane, organic solvent or mixture
  solubility: > 100 mg/mL
[3]; n-decane, organic solvent or mixture
  solubility: 36.8 mg/mL (≈ 117 mM)
[3]; n-hexane, organic solvent or mixture
  solubility: > 100 mg/mL
[3]; p-xylene, organic solvent or mixture
  solubility: > 100 mg/mL
[3]; silicone oil, oil or lipid, Silcone oil
  solubility: 9.7 mg/mL (≈ 30.8 mM)
[3]; toluene, organic solvent or mixture
  solubility: > 100 mg/mL
[3]; water
  solubility: < 0.13 mg/mL
[4]; AAC for two days
  Effect of accelerated aging conditions: did not lead to any physical changes
[4]; ground 1 hour at 30 Hz with 10 μL solvent, all samples
  Form by HT-XRPD analysis: Form A

From US12144795B2, “Cannabidiol compositions having modified cannabinoid profiles” (priority 2018, dated 2024)
